For data set [1] the following is noted: prescribing information and literature reports of Rhopress®, cited from earlier work.
A short description of data set [2]: Stability and compatibility of netarsudil dimesylate in boric acid-sodium borate buffer solution. It counts as physicochemical. The note with it: commercially available doses mixed in boric acid-sodium borate buffer solution, pH 4.5 to 5.4.

The text below walks through data of patent US20260027105A1, “COMPOUND MEDICINE COMPOSITION FOR TREATING GLAUCOMA AND USE OF SAME” (Shenyang Pharmaceutical University, priority 2022, published 2026).

Where a name gives a salt, the structure may show the parent alone. Read-outs that look alike come from different tables or passages of the source.

For the compound netarsudil dimesylate, the “stability in boric acid-sodium borate buffer solution” value in data set [1] (pH higher than 5.4) was “unstable and prone to generating precipitate”; in data set [1] (pH lower than 5.4, commercially available dose) it was “good in stability”.

On to `CC(C)(C)NCC(O)COc1cccc2c1CCC(=O)N2` (centres unmarked) [carteolol hydrochloride], for which the “compatibility with netarsudil dimesylate (white precipitate)” value (“compatibility with netarsudil dimesylate” below) in data set [2] is reported as “incompatible”.

Turning to `CC(C)(C)NC[C@H](O)COc1nsnc1N1CCOCC1` [timolol maleate], the “compatibility with netarsudil dimesylate” value in data set [2] is reported as “incompatible”.

Turning to `O=C(O)/C=C\C(=O)O` [maleic acid], in data set [2], the “compatibility with netarsudil dimesylate” value is given as “incompatible”.

Turning to `CC(=O)Oc1c(C)cc(OCC(O)CNC(C)C)c(C)c1C` (centres unmarked) [metipranolol hydrochloride], the “compatibility with netarsudil dimesylate” value in data set [2] was “incompatible”.

Regarding `Cl` [hydrochloric acid], in data set [2], the “compatibility with netarsudil dimesylate” value is reported as “incompatible”.

`CC(C)NCC(O)COc1ccc(CCOCC2CC2)cc1` (centres unmarked) [betaxolol hydrochloride]: the “compatibility with netarsudil dimesylate” value in data set [2] was “incompatible”.
